Experimental data published in ChEMBL document CHEMBL5352398 (Eur J Med Chem, 2022).
Calls of active or inactive are those of the source. The calls are words filed in the database; no cut-off is given here.

Experiments:
[1] = biological target: T1, Solute carrier family 22 member 12 (Homo sapiens, UniProt Q96S37); assay: Inhibition of human URAT1 stably overexpressing in human HEK293 cells assessed as inhibition of 14C-uric acid uptake preincubated for 30 mins followed by substrate addition and measured after 15 mins using 14C-uric acid as substrate by liquid scintillation counting analysis; format: cell-based
T1 sequence (Q96S37 whole entry): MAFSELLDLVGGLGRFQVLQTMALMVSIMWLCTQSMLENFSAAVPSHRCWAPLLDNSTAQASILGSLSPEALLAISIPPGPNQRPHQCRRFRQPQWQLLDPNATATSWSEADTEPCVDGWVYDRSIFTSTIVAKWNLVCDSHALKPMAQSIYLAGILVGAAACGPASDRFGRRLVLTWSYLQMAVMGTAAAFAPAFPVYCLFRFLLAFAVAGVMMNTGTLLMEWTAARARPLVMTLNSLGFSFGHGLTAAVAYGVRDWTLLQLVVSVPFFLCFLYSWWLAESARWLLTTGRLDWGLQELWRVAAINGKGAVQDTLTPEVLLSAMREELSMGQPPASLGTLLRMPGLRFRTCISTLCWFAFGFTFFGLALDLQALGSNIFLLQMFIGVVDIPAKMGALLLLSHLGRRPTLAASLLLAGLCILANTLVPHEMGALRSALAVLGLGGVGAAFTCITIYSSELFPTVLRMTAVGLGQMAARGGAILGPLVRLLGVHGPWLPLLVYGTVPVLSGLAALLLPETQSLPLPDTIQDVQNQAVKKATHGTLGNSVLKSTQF

[2] = Hepatotoxicity in Kunming mouse assessed as increase in AST level in serum at 50 mg/kg,po for 14 days in presence of BSO; format: toxicity, organism-based; conditions: in vivo, 336 h, time 14 day
[3] = Renal toxicity in Kunming mouse assessed as effect on creatinine level at 50 mg/kg,po for 14 days; format: organism-based; conditions: in vivo, 336 h, time 14 day
[4] = biological target: T2, Solute carrier family 2, facilitated glucose transporter member 9 (Mus musculus, UniProt Q3T9X0); assay: Inhibition of mouse GLUT9 transfected in human HEK293 cells assessed as inhibition of uric acid induced current by cell patch-clamp assay; format: cell-based
T2 sequence (Q3T9X0 whole entry): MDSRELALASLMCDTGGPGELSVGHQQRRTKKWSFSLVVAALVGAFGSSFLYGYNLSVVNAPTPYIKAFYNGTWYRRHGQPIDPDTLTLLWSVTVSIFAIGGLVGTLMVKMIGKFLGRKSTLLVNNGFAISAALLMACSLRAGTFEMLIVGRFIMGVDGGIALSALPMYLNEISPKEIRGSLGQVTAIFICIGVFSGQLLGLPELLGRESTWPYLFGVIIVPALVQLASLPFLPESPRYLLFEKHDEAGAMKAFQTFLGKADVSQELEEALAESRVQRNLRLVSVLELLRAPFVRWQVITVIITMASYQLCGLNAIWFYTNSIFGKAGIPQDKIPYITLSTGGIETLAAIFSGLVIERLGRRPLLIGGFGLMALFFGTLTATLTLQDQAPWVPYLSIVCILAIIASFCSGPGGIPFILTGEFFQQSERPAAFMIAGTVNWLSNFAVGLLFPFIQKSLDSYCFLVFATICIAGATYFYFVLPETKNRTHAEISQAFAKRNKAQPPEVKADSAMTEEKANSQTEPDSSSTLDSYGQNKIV

[5] = biological target: T3, Solute carrier family 22 member 6 (Homo sapiens, UniProt Q4U2R8); assay: Inhibition of OAT1 (unknown origin) transfected in HEK293 cells assessed as inhibition of 6-CFL uptake preincubated for 30 mins followed by 6-CFL addition and measured for 15 mins by fluorescence based microplate reader analysis; format: cell-based
T3 sequence (Q4U2R8 whole entry): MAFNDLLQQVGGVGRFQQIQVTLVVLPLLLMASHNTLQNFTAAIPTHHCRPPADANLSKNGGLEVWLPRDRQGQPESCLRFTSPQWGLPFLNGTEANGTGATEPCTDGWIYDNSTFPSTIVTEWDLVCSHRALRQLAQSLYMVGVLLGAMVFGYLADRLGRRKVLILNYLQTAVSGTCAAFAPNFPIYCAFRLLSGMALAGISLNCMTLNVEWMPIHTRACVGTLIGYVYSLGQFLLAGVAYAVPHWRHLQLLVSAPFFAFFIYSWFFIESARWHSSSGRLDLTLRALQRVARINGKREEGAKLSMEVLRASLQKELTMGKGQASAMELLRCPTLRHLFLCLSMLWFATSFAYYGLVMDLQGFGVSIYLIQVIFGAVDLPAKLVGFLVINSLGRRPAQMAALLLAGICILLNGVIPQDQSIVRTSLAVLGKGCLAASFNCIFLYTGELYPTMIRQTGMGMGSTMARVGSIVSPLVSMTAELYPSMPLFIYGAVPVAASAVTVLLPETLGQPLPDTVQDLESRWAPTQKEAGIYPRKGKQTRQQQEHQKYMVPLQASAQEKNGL

[6] = Tmax in Sprague-Dawley rat at 5 mg/kg, po and measured upto 24 hrs by LC-MS/MS analysis; format: ADME, organism-based; conditions: in vivo
[7] = Tmax in Sprague-Dawley rat at 5 mg/kg, iv and measured upto 24 hrs by LC-MS/MS analysis; format: ADME, organism-based; conditions: in vivo
[8] = Cmax in Sprague-Dawley rat at 5 mg/kg, po and measured upto 24 hrs by LC-MS/MS analysis; format: ADME, organism-based; design: dose 5 mg/kg, time < 24 hrs, route po; conditions: in vivo
[9] = Cmax in Sprague-Dawley rat at 5 mg/kg, iv and measured upto 24 hrs by LC-MS/MS analysis; format: ADME, organism-based; design: time < 24 hrs, dose 5 mg/kg, route iv; conditions: in vivo
[10] = Half life in Sprague-Dawley rat at 5 mg/kg, po and measured upto 24 hrs by LC-MS/MS analysis; format: ADME, organism-based; conditions: in vivo
[11] = Half life in Sprague-Dawley rat at 5 mg/kg, iv and measured upto 24 hrs by LC-MS/MS analysis; format: ADME, organism-based; conditions: in vivo
[12] = AUC(0 to infinity) in Sprague-Dawley rat at 5 mg/kg, po and measured upto 24 hrs by LC-MS/MS analysis; format: ADME, organism-based; design: time < 24 hrs, dose 5 mg/kg, route po; conditions: in vivo
[13] = AUC(0 to infinity) in Sprague-Dawley rat at 5 mg/kg, iv and measured upto 24 hrs by LC-MS/MS analysis; format: ADME, organism-based; design: dose 5 mg/kg, time < 24 hrs, route iv; conditions: in vivo
[14] = MRT (0 to infinity) in Sprague-Dawley rat at 5 mg/kg, po and measured upto 24 hrs by LC-MS/MS analysis; format: ADME, organism-based; conditions: in vivo
[15] = MRT (0 to infinity) in Sprague-Dawley rat at 5 mg/kg, iv and measured upto 24 hrs by LC-MS/MS analysis; format: ADME, organism-based; conditions: in vivo
[16] = Oral bioavailability in Sprague-Dawley rat at 5 mg/kg and measured upto 24 hrs by LCMS analysis; format: ADME, organism-based; conditions: in vivo
[17] = Subacute toxicity in Kunming mouse assessed as animal death at 50 mg/kg,po for 14 days; format: organism-based; conditions: in vivo, 336 h, time 14 day
[18] = Subacute toxicity in Kunming mouse assessed as body weight change at 50 mg/kg,po for 14 days; format: organism-based; conditions: in vivo, 336 h, time 14 day
[19] = Subacute toxicity in Kunming mouse assessed as lethargy at 50 mg/kg,po for 14 days; format: organism-based; conditions: in vivo, 336 h, time 14 day
[20] = Subacute toxicity in Kunming mouse assessed as clonic convulsion at 50 mg/kg,po for 14 days; format: organism-based; conditions: in vivo, 336 h, time 14 day
[21] = Subacute toxicity in Kunming mouse assessed as anorexia at 50 mg/kg,po for 14 days; format: organism-based; conditions: in vivo, 336 h, time 14 day
[22] = Subacute toxicity in Kunming mouse assessed as ruffled fur at 50 mg/kg,po for 14 days; format: organism-based; conditions: in vivo, 336 h, time 14 day
[23] = Hepatotoxicity in Kunming mouse assessed as increase in ALT level in serum at 50 mg/kg,po for 14 days in presence of BSO; format: toxicity, organism-based; conditions: in vivo, 336 h, time 14 day
[24] = Renal toxicity in Kunming mouse assessed as effect on BUN level at 50 mg/kg,po for 14 days; format: organism-based; conditions: in vivo, 336 h, time 14 day
[25] = Toxicity in Kunming mouse assessed as cell arrangements in liver at 50 mg/kg, po administered and measured after 14 days by HE staining; format: organism-based; conditions: in vivo, 336 h, time 14 day
[26] = Toxicity in Kunming mouse assessed as inflammatory infiltration in liver at 50 mg/kg, po administered and measured after 14 days by HE staining; format: organism-based; conditions: in vivo, 336 h, time 14 day
[27] = Toxicity in Kunming mouse assessed as appearance of normal tubular structure in kidney at 50 mg/kg, po administered and measured after 14 days by HE staining; format: organism-based; conditions: in vivo, 336 h, time 14 day
[28] = Toxicity in Kunming mouse assessed as appearance of normal glomerulus cells in kidney at 50 mg/kg, po administered and measured after 14 days by HE staining; format: organism-based; conditions: in vivo, 336 h, time 14 day
HepG2 = assay: Cytotoxicity against human HepG2 cells assessed as reduction in cell viability upto 400 uM incubated for 24 hrs by MTT assay; format: toxicity, cell-based; conditions: hepg2, 24 h
[29] = Toxicity in Kunming mouse assessed as inflammatory infiltration in kidney at 50 mg/kg, po administered and measured after 14 days by HE staining; format: organism-based; conditions: in vivo, 336 h, time 14 day
Mus musculus = assay: Anti-hyperuricemic activity against potassium oxonate induced hyperuricemia in Kunming mouse model assessed as decrease in serum urate level at 2 mg/kg, po and measured after 3 hrs; format: functional, organism-based

## O=C(c1ccc(O)c(Cl)c1)n1ccc2cccnc21
[1]
  IC50: 1580 nM

## O=C(c1cc(Cl)c(O)c(Cl)c1)n1ccc2c(Cl)ncnc21
[1]
  IC50: 1980 nM

## CC1Cc2ccccc2N1C(=O)c1cc(Cl)c(O)c(Cl)c1 (stereo unspecified)
[1]
  IC50: 1600 nM

## O=C(c1ccc(O)c([N+](=O)[O-])c1)n1ccc2cccnc21
[1]
  IC50: 2950 nM

## CC(C)(Sc1ccncc1-c1ccc(C#N)c2ccccc12)C(=O)O
[1]
  IC50: 130 nM

## O=C(c1cc(Cl)c(O)c(Cl)c1)n1ccc2cccnc21
[2]
  Activity: Non-Toxic
[3]
  Activity: Non-Toxic
[1]
  IC50: 800 nM
[4]
  IC50: > 20000 nM
[5]
  IC50: 10200 nM
[6]
  Tmax: 0.29 h
[7]
  Tmax: 0.52 h
[8]
  Cmax: 6830 ng/mL
[9]
  Cmax: 18400 ng/mL
[10]
  half-life: 4.61 h
[11]
  half-life: 6.8 h
[12]
  AUC(0-inf): 35300 ng·h/mL
[13]
  AUC(0-inf): 63800 ng·h/mL
[14]
  MRT inf: 7.27 h
[15]
  MRT inf: 9.85 h
[16]
  bioavailability: 55.3%
[17]
  Activity: Non-Toxic
[18]
  Activity: Non-Toxic
[19]
  Activity: Non-Toxic
[20]
  Activity: Non-Toxic
[21]
  Activity: Non-Toxic
[22]
  Activity: Non-Toxic
[23]
  Activity: Non-Toxic
[24]
  Activity: Non-Toxic
[25]
  Activity: Non-Toxic
[26]
  Activity: Non-Toxic
[27]
  Activity: Non-Toxic
[28]
  Activity: Non-Toxic
HepG2
  Activity: Toxic
[29]
  Activity: Non-Toxic

## Cc1cc(C(=O)n2ccc3cccnc32)ccc1O
[1]
  IC50: 5830 nM

## O=C(c1ccc(O)c(Br)c1)n1ccc2cccnc21
[1]
  IC50: 3800 nM

## COc1cc(C(=O)n2ccc3cccnc32)cc(OC)c1O
[1]
  IC50: 4850 nM

## O=C(c1cc(Cl)c(O)c(Cl)c1)n1ccc2ncccc21
[1]
  IC50: 1560 nM

## O=C(c1cc(Cl)c(O)c(Cl)c1)n1ncc2ccccc21
[1]
  IC50: 2260 nM

## COc1cc(C(=O)n2ccc3cccnc32)ccc1O
[1]
  IC50: 2690 nM

## O=C(c1cc(Cl)c(O)c(Cl)c1)n1cc(Br)c2cccnc21
[1]
  IC50: 1550 nM

## Cc1cc(C(=O)n2ccc3cccnc32)cc(C)c1O
[1]
  IC50: 2700 nM

## O=C(O)CSc1nnc(Br)n1-c1ccc(C2CC2)c2ccccc12
Mus musculus
  Activity: Active

## Cc1ccc2c(cnn2C(=O)c2cc(Cl)c(O)c(Cl)c2)c1
[1]
  IC50: 1810 nM

## O=C(c1ccc(O)c(F)c1)n1ccc2cccnc21
[1]
  IC50: 2080 nM

## O=C(c1cc(Cl)c(O)c(Cl)c1)n1ccc2cnccc21
[1]
  IC50: 2810 nM

## O=C(c1cc(Cl)c(O)c(Cl)c1)N1CCc2cc(Br)ccc21
[1]
  IC50: 2360 nM

## O=C(c1ccc(O)cc1)n1ccc2cccnc21
[1]
  IC50: 1720 nM

## O=C(c1cc(Cl)c(O)c(Cl)c1)n1ccc2ccncc21
[1]
  IC50: 3220 nM

## O=C(c1cc(Br)c(O)c(Br)c1)n1ccc2cccnc21
[1]
  IC50: 2300 nM
